# Experimental data from patent publication US20150217046A1, “DOSING REGIMENS FOR SUBCUTANEOUSLY INFUSIBLE ACIDIC COMPOSITIONS” (SynAgile Corporation, priority 2012, published 2015).
# Read-outs that look alike come from different tables or passages of the source.
# Assays:
# [1] = Infusion site reactions, continuous subcutaneous infusion of 100 mg/mL LDEE pH 3.7 (Example 5); type: in vivo, minipigs; conditions: pH 3.7, 100 mg/mL (0.44M) LDEE, continuous s.c. 8 h, 280 mg per site, N = 15 infusions
# Procedure: The 5.6 mL volume was divided between two simultaneously infused sites, each site receiving 2.8 mL, i.e., 280 mg LDEE. At each site the flow rate was 0.35 mL/hour, i.e. 35 mg LDEE/hour was infused. The number of sites infused on the first day totaled in the four minipigs 8, and was 7 on the 8th day, because of dislodgement of a cannula from one site. The total number of infused sites was 15.
# [2] = Skin symptoms and behavior after subcutaneous LDEE infusion (Example 7); type: in vivo, minipigs
# [3] = minipig A day 1: 90 mg LDEE (100 mg/mL, pH 3.7) s.c. continuous over 8 h, oral Lodosyn
# [4] = minipig A day 8: 90 mg LDEE (100 mg/mL, pH 3.7) re-infused at contralateral site over 8 h, pre-infused with 15 units human hyaluronidase
# [5] = minipig B day 1: 90 mg LDEE (100 mg/mL, pH 3.7) s.c. continuous over 8 h, oral Lodosyn
# [6] = minipig C day 1: 560 mg LDEE (100 mg/mL, pH 3.7) split between 2 sites, s.c. continuous over 8 h, oral Lodosyn
# [7] = minipig C day 8: 280 mg LDEE (100 mg/mL, pH 3.7) re-infused at one site, s.c. continuous over 8 h
# [8] = minipig D day 1: 560 mg LDEE (100 mg/mL, pH 3.7) split between 2 sites, s.c. continuous over 8 h, oral Lodosyn
# [9] = minipig D day 8: 560 mg LDEE (100 mg/mL, pH 3.7) re-infused at the 2 day 1 sites, s.c. continuous over 8 h
# [10] = minipig E day 1: 560 mg LDEE (100 mg/mL, pH 3.7) split between 2 sites, s.c. continuous over 8 h, pre-infused with 15 units human hyaluronidase
# [11] = minipig F day 1: 560 mg LDEE (100 mg/mL, pH 3.7) split between 2 sites, s.c. continuous over 8 h, pre-infused with 15 units human hyaluronidase
# [12] = minipig F day 8: 560 mg LDEE (100 mg/mL, pH 3.7) re-infused at 2 sites over 8 h, pre-infused with 15 units human hyaluronidase
smiles,measurement,setting,value
"CCOC(=O)[C@@H](N)Cc1ccc(O)c(O)c1 [LDEE, levodopa ethyl ester]",Fraction of sites with a reaction (firmness),[1]; 7 days after end of infusion,0.067
same,Fraction of sites with a reaction (firmness),[1]; 14 days after end of infusion,0
same,behavior of the minipigs,"[2]; LDEE dose rate raising plasma LD above 10,000 ng/mL, even above 15,000 ng/mL",did not result in a readily observable change in the behavior of the minipigs
same,diameter of slightly raised swelling at infused site,"[2]; minipig D only, 7 days after first infusion and again after end of 8th day reinfusion, 560 mg LDEE 100 mg/mL pH 3.7",about 1 cm
same,"Plasma LD, 480 minutes after start of infusion",Average of the 10 minipig/day infusions of Table 10,"7,870 ng/mL"
same,"Plasma LD, 480 minutes after start of infusion","minipig A day 1: 90 mg LDEE (100 mg/mL, pH 3.7) s.c. continuous over 8 h","1,051 ng/mL"
same,40 minutes Post-Infusion plasma LD,[3],"1,093 ng/mL"
same,End of Infusion Plasma LD,[3],"1,051 ng/mL"
same,40 minutes Post-Infusion plasma LD,[4],691 ng/mL
same,100 minutes Post-Infusion plasma LD,[4],342 ng/mL
same,170 minutes Post-Infusion plasma LD,[4],185 ng/mL
same,End of Infusion Plasma LD,[4],679 ng/mL
same,"Plasma LD, 480 minutes after start of infusion","minipig A day 8: 90 mg LDEE (100 mg/mL, pH 3.7), contralateral site, 8 h, hyaluronidase pre-infusion",679 ng/mL
same,"Plasma LD, 480 minutes after start of infusion","minipig B day 1: 90 mg LDEE (100 mg/mL, pH 3.7) s.c. continuous over 8 h","1,351 ng/mL"
same,40 minutes Post-Infusion plasma LD,[5],"1,010 ng/mL"
same,100 minutes Post-Infusion plasma LD,[5],686 ng/mL
same,170 minutes Post-Infusion plasma LD,[5],376 ng/mL
same,End of Infusion Plasma LD,[5],"1,351 ng/mL"
same,"Plasma LD, 480 minutes after start of infusion","minipig C day 1: 560 mg LDEE (100 mg/mL, pH 3.7) split between 2 sites, s.c. continuous over 8 h","11,377 ng/mL"
same,40 minutes Post-Infusion plasma LD,[6],"11,006 ng/mL"
same,100 minutes Post-Infusion plasma LD,[6],"6,010 ng/mL"
same,170 minutes Post-Infusion plasma LD,[6],"5,754 ng/mL"
same,End of Infusion Plasma LD,[6],"11,377 ng/mL"
same,"Plasma LD, 480 minutes after start of infusion","minipig C day 8: 280 mg LDEE (100 mg/mL, pH 3.7) at one site, 8 h",4739 ng/mL
same,40 minutes Post-Infusion plasma LD,[7],4551 ng/mL
same,100 minutes Post-Infusion plasma LD,[7],3357 ng/mL
same,170 minutes Post-Infusion plasma LD,[7],2306 ng/mL
same,End of Infusion Plasma LD,[7],4739 ng/mL
same,"Plasma LD, 480 minutes after start of infusion","minipig D day 1: 560 mg LDEE (100 mg/mL, pH 3.7) split between 2 sites, s.c. continuous over 8 h","15,356 ng/mL"
same,40 minutes Post-Infusion plasma LD,[8],"17,055 ng/mL"
same,100 minutes Post-Infusion plasma LD,[8],"9,790 ng/mL"
same,170 minutes Post-Infusion plasma LD,[8],"6,942 ng/mL"
same,End of Infusion Plasma LD,[8],"15,356 ng/mL"
same,"Plasma LD, 480 minutes after start of infusion","minipig D day 8: 560 mg LDEE (100 mg/mL, pH 3.7) re-infused at the 2 day 1 sites, 8 h",8075 ng/mL
same,40 minutes Post-Infusion plasma LD,[9],8350 ng/mL
same,100 minutes Post-Infusion plasma LD,[9],5928 ng/mL
same,170 minutes Post-Infusion plasma LD,[9],4219 ng/mL
same,End of Infusion Plasma LD,[9],8075 ng/mL
same,increase in plasma LD concentration 40 minutes after cessation of infusion,"minipig D, Day 1 infusion","1,699 ng/mL"
same,40 minutes Post-Infusion plasma LD,[10],"11,918 ng/mL"
same,100 minutes Post-Infusion plasma LD,[10],"5,464 ng/mL"
same,170 minutes Post-Infusion plasma LD,[10],"7,329 ng/mL"
same,End of Infusion Plasma LD,[10],"14,212 ng/mL"
same,"Plasma LD, 480 minutes after start of infusion","minipig E day 1: 560 mg LDEE (100 mg/mL, pH 3.7), 2 sites, 8 h, hyaluronidase pre-infusion","14,212 ng/mL"
same,40 minutes Post-Infusion plasma LD,[11],"12,310 ng/mL"
same,100 minutes Post-Infusion plasma LD,[11],"3,046 ng/mL"
same,170 minutes Post-Infusion plasma LD,[11],"5,903 ng/mL"
same,End of Infusion Plasma LD,[11],"12,982 ng/mL"
same,"Plasma LD, 480 minutes after start of infusion","minipig F day 1: 560 mg LDEE (100 mg/mL, pH 3.7), 2 sites, 8 h, hyaluronidase pre-infusion","12,982 ng/mL"
same,40 minutes Post-Infusion plasma LD,[12],8223 ng/mL
same,100 minutes Post-Infusion plasma LD,[12],6231 ng/mL
same,170 minutes Post-Infusion plasma LD,[12],3650 ng/mL
same,End of Infusion Plasma LD,[12],8880 ng/mL
same,"Plasma LD, 480 minutes after start of infusion","minipig F day 8: 560 mg LDEE (100 mg/mL, pH 3.7), 2 sites, 8 h, hyaluronidase pre-infusion",8880 ng/mL
